Each structure is given as a SMILES string.

In one data set the target is T1, KAT8 (Homo sapiens, UniProt Q9H7Z6).
T1 construct: using the previously purified KAT8 (173–458, 5 nM); 6xHis tag with TEV protease cleavage site (N, cleaved yes); made in house; host or cells: E. coli BL21(DE3)
T1 sequence (Q9H7Z6 173-458): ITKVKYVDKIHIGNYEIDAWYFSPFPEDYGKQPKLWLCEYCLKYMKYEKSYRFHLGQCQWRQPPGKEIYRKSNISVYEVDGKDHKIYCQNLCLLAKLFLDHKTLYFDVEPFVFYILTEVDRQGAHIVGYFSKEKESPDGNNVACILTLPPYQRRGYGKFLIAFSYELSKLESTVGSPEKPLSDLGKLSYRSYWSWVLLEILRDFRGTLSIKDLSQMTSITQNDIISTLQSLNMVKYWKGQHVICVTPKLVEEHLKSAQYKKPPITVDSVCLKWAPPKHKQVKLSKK
Nature of the data set: Radioactive KAT8 inhibition assay. The class given is biochemical. The following applies: read-out: IC50 KAT8 (5 nM); enzyme 5 nM; 2-fold serial dilution from 200 μM; NI = no inhibition at 200 μM; mean ± SD of three independent experiments. On the procedure: Purified KAT8 was incubated with the relevant inhibitor (1% DMSO final) in a 2-fold serial dilution starting at 200 μM for 20 min at rt. Then, [^3H]Ac-CoA and biotinylated peptide were added to a total assay volume of 50 μL and the reaction mixture was incubated at rt for 4 h. The reaction was stopped, and the mixture was transferred to a 96-well streptavidin scintillant coated FlashPlate (Perkin Elmer) and incubated for 60 min at rt. The FlashPlate was washed with 0.1% Tween-20, and the liquid scintillation counting (MicroBeta Microplate Counter, Perkin Elmer) was employed to measure the radioactive signal. Experiments were performed in biological triplicates. Signal reduction compared to control was plotted (as inhibition percentage) as a function of compound concentration and fitted by nonlinear regression (GraphPad Prism 8.0) finally yielding the IC50 values.

For another data set, the target named is T2, KAT3B (Homo sapiens, UniProt Q09472).
T2 construct: KAT3B (aa 1284–1672, 1 nM); purchased Reaction Biology Corporation
T2 sequence (Q09472 1284-1672): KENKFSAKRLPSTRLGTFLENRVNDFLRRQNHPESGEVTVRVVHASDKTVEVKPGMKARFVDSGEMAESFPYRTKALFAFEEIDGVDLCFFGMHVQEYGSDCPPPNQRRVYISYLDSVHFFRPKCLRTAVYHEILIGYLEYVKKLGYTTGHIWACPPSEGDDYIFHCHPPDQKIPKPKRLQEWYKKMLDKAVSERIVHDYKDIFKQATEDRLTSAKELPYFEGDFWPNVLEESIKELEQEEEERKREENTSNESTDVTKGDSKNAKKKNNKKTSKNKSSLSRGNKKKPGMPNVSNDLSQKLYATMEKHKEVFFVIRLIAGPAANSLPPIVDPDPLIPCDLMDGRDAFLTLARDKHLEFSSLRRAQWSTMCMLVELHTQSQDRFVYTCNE
Nature of the data set: HotSpot KAT assay, KAT3B. In kind it is biochemical. To be noted: read-out: IC50 KAT3B (1 nM); enzyme 1 nM; NI = no inhibition at 200 μM; mean ± SD of three independent experiments. On the procedure:
The effects of the compounds on other KATs were determined using the HotSpot KAT assay (Reaction Biology Corporation, Malvern, PA, USA) according to the supplier’s procedure. […] Histone peptide acetylation was assessed by liquid scintillation counting using a Tri-Carb 2800TR Liquid Scintillation Analyzer (Perkin Elmer). Experiments were performed in biological triplicates. Signal reduction compared to control was plotted (as inhibition percentage) as a function of compound concentration. In cases in which an IC50 was calculated, the values were fitted by nonlinear regression (GraphPad Prism 8.0).

Another data set deals with T3, KAT2B (Homo sapiens, UniProt Q92831).
T3 construct: KAT2B (aa 492–658, 25 nM); purchased Reaction Biology Corporation
Nature of the data set: HotSpot KAT assay, KAT2B. The class given is biochemical. To be noted: enzyme 25 nM; NI = no inhibition at 200 μM; mean ± SD of three independent experiments. On the procedure:
(§1) The effects of the compounds on other KATs were determined using the HotSpot KAT assay (Reaction Biology Corporation, Malvern, PA, USA) according to the supplier’s procedure. The recombinant catalytic domains of human KAT2A (aa 323–837, 15 nM), KAT2B (aa 492–658, 25 nM), KAT3B (aa 1284–1672, 1 nM), KAT6A (aa 488–778, 10 nM), KAT6B (aa 657–1069, 10 nM), and full length human KAT5 (25 nM) and KAT7 (25 nM) were used. Each enzyme was incubated with the relevant histone peptide [H3 peptide for KAT2A, KAT2B, KAT3B, KAT6A, and KAT7 (2.5–5 μM, depending on the KAT isoform); H2A peptide for KAT5 (1.25 μM); H4 peptide for KAT6B (2.5 μM)] as a substrate and radio-isotope-labeled [^3H]Acetyl-CoA (0.2–1.5 μM, depending on the KAT isoform) as an acetyl donor in the assay buffer [50 mM Tris–HCl (pH 8.0), 50 mM NaCl, 0.1 mM EDTA, 1 mM DTT, 0.1 mM PMSF, 1% DMSO] for 1 h at 30 °C in the presence or absence of various compounds (1% DMSO final) titrated in a 2-fold serial dilution starting at 200 μM. Histone peptide acetylation was assessed by liquid scintillation counting using a Tri-Carb 2800TR Liquid Scintillation Analyzer (Perkin Elmer). Experiments were performed in biological triplicates. Signal reduction compared to control was plotted (as inhibition percentage) as a function of compound concentration. In cases in which an IC50 was calculated, the values were fitted by nonlinear regression (GraphPad Prism 8.0).

Data set [1] relates to U937 cells. Further details: method as in PMID 28202522. The following applies: cited from earlier work.
A further data set concerns the target T4, KAT2A (Homo sapiens, UniProt Q92830).
T4 construct: human KAT2A (aa 323–837, 15 nM); purchased Reaction Biology Corporation
Kind of data set: HotSpot KAT assay, KAT2A. To be noted: control compound; read-out: IC50 KAT2A (15 nM). The class given is biochemical. On the procedure: as §1

The test system of another data set is HCT116 cells. Kind of data set: MTT cell proliferation assay, HCT116. The class given is cell-based, human. To be noted: 72 h treatment, MTT. The text has this: (§2) Human commercially available AML U937, breast cancer MCF7, lung adenocarcinoma NCI-H460, H1299 and A-549, glioblastoma U251, B lymphocyte AHH1 cell lines were maintained in compete 10% foetal bovine serum (FBS,) RPMI 1640 (Euroclone, Milan, IT) medium. Human commercially available colon cancer HCT116 and HT29 lines and cervix adenocarcinoma HeLa cells were maintained in compete 10% FBS Dulbecco’s Modified Eagle Medium (DMEM) high glucose medium (Euroclone). L-Glutamine, FBS, and penicillin streptomycin mixture added to medium were obtained from Euroclone. All cell lines were cultured at 37 °C in a humidified atmosphere of 5% CO2:95% air and were tested for mycoplasma contamination routinely by RT-PCR.
(§3) For analysis of cell proliferation, cells were plated in sextuplicate on 96-well plates in complete media. After 24 h, cells were exposed to different drugs for 72 h. The inhibitory effect of different drugs was assessed by MTT (Sigma, St. Louis, MO, USA) colorimetric assays as previously reported.[67] Aqueous DMSO (0.5% v/v) was used as a control (untreated). The results are reported as “viability of drug-treated cells/viability of untreated cells” × 100 and represent the average ±SD of three independent experiments. IC50 values were using fitted by nonlinear regression using GraphPad Prism 8.0.

The next data set has as its system H1299 cells. Nature of the data set: MTT cell proliferation assay, H1299. In kind it is cell-based, human. The following applies: 72 h treatment, MTT.
From the text: as §2, §3

In a further data set the test system is A549 cells. Kind of data set: MTT cell proliferation assay, A549. The class given is cell-based, human. To be noted: 72 h treatment, MTT.
From the text: as §2, §3

For data set [2], the system named is U937 cells. Nature of the data set: MTT cell proliferation assay, U937. The class given is cell-based, human. The following applies: 72 h treatment, MTT.
From the text: as §2, §3

A further data set deals with AHH-1 cells. Nature of the data set: Proliferation of noncancer B lymphocyte AHH-1 cells. The class given is cell-based, human. To be noted: 72 h.
From the text: as §2, §3

Data set [3] has as its system human intestinal epithelial cells (InEpC). Nature of the data set: Proliferation of human intestinal epithelial cells (InEpC). In kind it is cell-based. To be noted: 25, 50, 100, 200 μM, 72 h. On the procedure: as §3
Data set [4] concerns normal human lung fibroblasts (NHLF). Kind of data set: Proliferation of normal human lung fibroblasts (NHLF). The class given is cell-based. To be noted: 25, 50, 100, 200 μM, 72 h. On the procedure:
as §3

T3 sequence (Q92831 492-658): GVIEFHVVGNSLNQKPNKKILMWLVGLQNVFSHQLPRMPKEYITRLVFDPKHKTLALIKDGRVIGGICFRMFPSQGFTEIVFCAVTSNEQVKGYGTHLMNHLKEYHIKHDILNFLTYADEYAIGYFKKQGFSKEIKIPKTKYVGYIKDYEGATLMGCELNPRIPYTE
T4 sequence (Q92830 323-837): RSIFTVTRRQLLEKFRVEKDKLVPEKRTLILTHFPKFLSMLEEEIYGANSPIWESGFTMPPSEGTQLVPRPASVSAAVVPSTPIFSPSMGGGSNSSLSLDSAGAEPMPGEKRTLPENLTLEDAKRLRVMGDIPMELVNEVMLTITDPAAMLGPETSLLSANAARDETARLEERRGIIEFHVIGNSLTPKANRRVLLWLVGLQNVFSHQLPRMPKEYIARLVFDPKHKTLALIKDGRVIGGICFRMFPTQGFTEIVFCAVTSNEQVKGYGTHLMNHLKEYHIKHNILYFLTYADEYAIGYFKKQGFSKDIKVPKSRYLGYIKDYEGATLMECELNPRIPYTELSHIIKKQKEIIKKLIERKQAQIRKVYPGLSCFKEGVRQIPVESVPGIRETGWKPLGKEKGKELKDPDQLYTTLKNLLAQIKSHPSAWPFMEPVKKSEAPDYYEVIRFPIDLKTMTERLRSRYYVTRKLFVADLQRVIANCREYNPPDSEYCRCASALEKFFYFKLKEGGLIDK

For the compound `CCCCCCCc1ccc(CCc2cccc(O)c2C(=O)O)cc1` [III (MG149), reference compound], the half-maximal inhibitory concentration (IC50) on KAT8 is 20.3 ± 1.3 µM; on KAT3B, 22.3 ± 1.1 µM; on KAT2B, over 200 µM. The “antiproliferative activity in U937 and other AML cell lines” value in the data set on U937 cells [1] was “exerted antiproliferative activity”.
Take `CCCCCCCCCCCCCCCc1cccc(O)c1C(=O)O` [I (AA), anacardic acid, reference compound]: the IC50 turned out to be 22.9 ± 1.3 µM on KAT3B, 39.7 ± 1.1 µM against KAT2B and 42.1 µM on KAT2A.
As for `CC1=NN(c2ccc(C(=O)NCc3ccccc3)cc2)C(=O)/C1=C\c1ccc[nH]1` [Compound 39, (Z)-4-(4-((1H-Pyrrol-2-yl)methylene)-3-methyl-5-oxo-4,5-dihydro-1H-pyrazol-1-yl)-N-benzylbenzamide], the IC50 was over 200 µM at KAT8; over 200 µM on KAT3B; over 200 µM against KAT2B; over 200 µM with AHH-1 cells (Homo sapiens, AHH-1, NI = no inhibition at 200 µM). The “IC50 HCT116, 72 h” value with HCT116 cells is “No inhibition at 100 µM”. Besides, the “IC50 H1299, 72 h” value in the data set on H1299 cells is given as “No inhibition at 100 µM”. The “IC50 A549, 72 h” value with A549 cells is “No inhibition at 100 µM”. Moreover, in the data set on U937 cells [2], the “IC50 U937, 72 h” value was “No inhibition at 100 µM”. Also, the “effect on proliferation of AHH-1 cells” value with AHH-1 cells (25, 50, 100, 200 μM) is reported as “did not significantly affect the proliferation”. Also, the “effect on proliferation of InEpC” value in data set [3] is on record as “did not significantly affect the proliferation”. Moreover, in [4], the “effect on proliferation of NHLF” value is given as “did not significantly affect the proliferation”.
With `Cc1nn(-c2ccc(C(=O)O)cc2)c(O)c1Cc1ccccc1` [Compound 32, 4-(4-Benzyl-5-hydroxy-3-methyl-1H-pyrazol-1-yl)benzoic Acid], the IC50 on KAT8 is 26.9 ± 2.3 µM; on KAT3B, over 200 µM; against KAT2B it was over 200 µM.
As to `CC1=NN(c2ccc(C(=O)O)cc2)C(=O)/C1=C\c1cc(C(=O)c2ccccc2[N+](=O)[O-])c[nH]1` [Compound 2, (Z)-4-(3-Methyl-4-((4-(2-nitrobenzoyl)-1H-pyrrol-2-yl)methylene)-5-oxo-4,5-dihydro-1H-pyrazol-1-yl)benzoic Acid], the figures for the IC50 on KAT8, at KAT3B and against KAT2B were 86.2 ± 10 µM, 9.1 ± 0.6 µM and over 200 µM, respectively.

The record behind these values is publication PMC10226132, “First-in-Class Selective Inhibitors of the Lysine Acetyltransferase KAT8” (Journal of Medicinal Chemistry, 2023).
